Measurements from ChEMBL document CHEMBL3885881, “DrugMatrix”.

Species: Rattus norvegicus
Assay: DrugMatrix - Regimen: Daily Repeat
Type: toxicity, organism-based, Sprague-Dawley
Set-up: regimen Daily Repeat, gender Male, age 6-8 weeks
Conditions: in vivo, po, route oral GAVAGE, […]; for ABSOLUTE BASOPHIL / ABSOLUTE EOSINOPHIL / ABSOLUTE LYMPHOCYTE / ABSOLUTE MONOCYTE / ABSOLUTE SEGMENTED NEUTROPHIL / BASOPHIL / EOSINOPHIL / ERYTHROCYTE COUNT / HEMATOCRIT / HEMOGLOBIN / LEUKOCYTE COUNT / LYMPHOCYTE / MEAN CORPUSCULAR HEMOGLOBIN / MEAN CORPUSCULAR HEMOGLOBIN CONCENTRATION / MEAN CORPUSCULAR VOLUME / MONOCYTE / NEUTROPHIL / NUCLEATED RED BLOOD CELLS / PLATELET COUNT: tissue Blood; for ALANINE AMINOTRANSFERASE / ALBUMIN / ALKALINE PHOSPHATASE / ASPARTATE AMINOTRANSFERASE / BLOOD UREA NITROGEN / CARBON DIOXIDE / CHLORIDE / CHOLESTEROL / CREATINE PHOSPHOKINASE / CREATININE / GLUCOSE / LACTATE DEHYDROGENASE / LIPASE / PHOSPHORUS / POTASSIUM / SODIUM / TOTAL BILIRUBIN / TOTAL PROTEIN / URIC ACID: tissue Plasma
[1] = 0.05 mg/kg, 120 h, dose level Low, time 5 day
[2] = 7 mg/kg, 72 h, dose level High, time 3 day
[3] = 7 mg/kg, 120 h, dose level High, time 5 day

COCc1c(C(C)C)nc(C(C)C)c(/C=C/[C@@H](O)C[C@@H](O)CC(=O)O)c1-c1ccc(F)cc1 [CERIVASTATIN]
ABSOLUTE BASOPHIL [1]: 0 CELLS/uL
ABSOLUTE EOSINOPHIL [1]: 39 CELLS/uL
ABSOLUTE LYMPHOCYTE [1]: 10187.67 CELLS/uL
ABSOLUTE MONOCYTE [1]: 164.67 CELLS/uL
ABSOLUTE SEGMENTED NEUTROPHIL [1]: 875.33 CELLS/uL
BASOPHIL [1]: 0%
EOSINOPHIL [1]: 0.33%
ERYTHROCYTE COUNT [1]: 5.9 x10E6/uL
HEMATOCRIT [1]: 36.4%
HEMOGLOBIN [1]: 13.87 G/DL
LEUKOCYTE COUNT [1]: 11.27 x10E3/uL
LYMPHOCYTE [1]: 90.33%
MEAN CORPUSCULAR HEMOGLOBIN [1]: 23.53 pg
MEAN CORPUSCULAR HEMOGLOBIN CONCENTRATION [1]: 38.1 G/DL
MEAN CORPUSCULAR VOLUME [1]: 61.73 fL
MONOCYTE [1]: 1.33%
NEUTROPHIL [1]: 8%
NUCLEATED RED BLOOD CELLS [1]: 0 /100WBC
PLATELET COUNT [1]: 1545 x10E3/uL
ALANINE AMINOTRANSFERASE [1]: 66.33 u/L
ALBUMIN [1]: 4.1 G/DL
ALKALINE PHOSPHATASE [1]: 440.67 u/L
ASPARTATE AMINOTRANSFERASE [1]: 90 u/L
BLOOD UREA NITROGEN [1]: 14.67 mg/dL
CARBON DIOXIDE [1]: 32 mmol/L
CHLORIDE [1]: 101 MEQ/L
CHOLESTEROL [1]: 63.67 mg/dL
CREATINE PHOSPHOKINASE [1]: 453 u/L
CREATININE [1]: 0.19 mg/dL
GLUCOSE [1]: 143.33 mg/dL
LACTATE DEHYDROGENASE [1]: 112.33 u/L
LIPASE [1]: 11.33 u/L
PHOSPHORUS [1]: 10.8 mg/dL
POTASSIUM [1]: 6.11 MEQ/L
SODIUM [1]: 144.4 MEQ/L
TOTAL BILIRUBIN [1]: 0.17 mg/dL
TOTAL PROTEIN [1]: 5.87 G/DL
URIC ACID [1]: 1.37 mg/dL
ABSOLUTE BASOPHIL [2]: 0 CELLS/uL
ABSOLUTE EOSINOPHIL [2]: 0 CELLS/uL
ABSOLUTE LYMPHOCYTE [2]: 7320 CELLS/uL
ABSOLUTE MONOCYTE [2]: 110 CELLS/uL
ABSOLUTE SEGMENTED NEUTROPHIL [2]: 1470 CELLS/uL
BASOPHIL [2]: 0%
EOSINOPHIL [2]: 0%
ERYTHROCYTE COUNT [2]: 6.07 x10E6/uL
HEMATOCRIT [2]: 37.7%
HEMOGLOBIN [2]: 14.3 G/DL
LEUKOCYTE COUNT [2]: 8.9 x10E3/uL
LYMPHOCYTE [2]: 81.67%
MEAN CORPUSCULAR HEMOGLOBIN [2]: 23.6 pg
MEAN CORPUSCULAR HEMOGLOBIN CONCENTRATION [2]: 37.93 G/DL
MEAN CORPUSCULAR VOLUME [2]: 62.2 fL
MONOCYTE [2]: 1.33%
NEUTROPHIL [2]: 17%
NUCLEATED RED BLOOD CELLS [2]: 0 /100WBC
PLATELET COUNT [2]: 1276.33 x10E3/uL
ALANINE AMINOTRANSFERASE [2]: 401.33 u/L
ALBUMIN [2]: 4.23 G/DL
ALKALINE PHOSPHATASE [2]: 440.67 u/L
ASPARTATE AMINOTRANSFERASE [2]: 730.67 u/L
BLOOD UREA NITROGEN [2]: 14.33 mg/dL
CARBON DIOXIDE [2]: 34.67 mmol/L
CHLORIDE [2]: 99.33 MEQ/L
CHOLESTEROL [2]: 65.33 mg/dL
CREATINE PHOSPHOKINASE [2]: 536.67 u/L
CREATININE [2]: 0.21 mg/dL
GLUCOSE [2]: 138.33 mg/dL
LACTATE DEHYDROGENASE [2]: 823 u/L
LIPASE [2]: 11.33 u/L
PHOSPHORUS [2]: 10.17 mg/dL
POTASSIUM [2]: 6.19 MEQ/L
SODIUM [2]: 145.1 MEQ/L
TOTAL BILIRUBIN [2]: 0.13 mg/dL
TOTAL PROTEIN [2]: 5.9 G/DL
URIC ACID [2]: 1.17 mg/dL
ABSOLUTE BASOPHIL [3]: 0 CELLS/uL
ABSOLUTE EOSINOPHIL [3]: 0 CELLS/uL
ABSOLUTE LYMPHOCYTE [3]: 5700.67 CELLS/uL
ABSOLUTE MONOCYTE [3]: 483.33 CELLS/uL
ABSOLUTE SEGMENTED NEUTROPHIL [3]: 1949.33 CELLS/uL
BASOPHIL [3]: 0%
EOSINOPHIL [3]: 0%
ERYTHROCYTE COUNT [3]: 6.32 x10E6/uL
HEMATOCRIT [3]: 41%
HEMOGLOBIN [3]: 15.23 G/DL
LEUKOCYTE COUNT [3]: 8.13 x10E3/uL
LYMPHOCYTE [3]: 68.33%
MEAN CORPUSCULAR HEMOGLOBIN [3]: 24.1 pg
MEAN CORPUSCULAR HEMOGLOBIN CONCENTRATION [3]: 37.17 G/DL
MEAN CORPUSCULAR VOLUME [3]: 64.93 fL
MONOCYTE [3]: 5.67%
NEUTROPHIL [3]: 26%
NUCLEATED RED BLOOD CELLS [3]: 0 /100WBC
PLATELET COUNT [3]: 1312.67 x10E3/uL
ALANINE AMINOTRANSFERASE [3]: 247.33 u/L
ALBUMIN [3]: 3.9 G/DL
ALKALINE PHOSPHATASE [3]: 548.33 u/L
ASPARTATE AMINOTRANSFERASE [3]: 624.67 u/L
BLOOD UREA NITROGEN [3]: 19 mg/dL
CARBON DIOXIDE [3]: 35.67 mmol/L
CHLORIDE [3]: 93 MEQ/L
CHOLESTEROL [3]: 85 mg/dL
CREATINE PHOSPHOKINASE [3]: 915.67 u/L
CREATININE [3]: 0.27 mg/dL
GLUCOSE [3]: 124.33 mg/dL
LACTATE DEHYDROGENASE [3]: 295 u/L
LIPASE [3]: 13 u/L
PHOSPHORUS [3]: 8 mg/dL
POTASSIUM [3]: 5.51 MEQ/L
SODIUM [3]: 142.73 MEQ/L
TOTAL BILIRUBIN [3]: 0.13 mg/dL
TOTAL PROTEIN [3]: 6.1 G/DL
URIC ACID [3]: 0.87 mg/dL
